Laboratory results from patent publication US12030878B2 (BRISTOL-MYERS SQUIBB COMPANY, priority 2017, dated 2024).

Legend:
Type in all cases: cell-based
human TLR7 = biological target: T1, human TLR7 (Homo sapiens, UniProt Q9NYK1); assay: TLR7 inhibition reporter assay (HEK-Blue SEAP); conditions: HEK-Blue cells overexpressing human TLR7, stimulated with gardiquimod 7.5 μM, 22 hour incubation
T1 construct: host or cells: HEK-Blue cells
T1 sequence (Q9NYK1 27-1049): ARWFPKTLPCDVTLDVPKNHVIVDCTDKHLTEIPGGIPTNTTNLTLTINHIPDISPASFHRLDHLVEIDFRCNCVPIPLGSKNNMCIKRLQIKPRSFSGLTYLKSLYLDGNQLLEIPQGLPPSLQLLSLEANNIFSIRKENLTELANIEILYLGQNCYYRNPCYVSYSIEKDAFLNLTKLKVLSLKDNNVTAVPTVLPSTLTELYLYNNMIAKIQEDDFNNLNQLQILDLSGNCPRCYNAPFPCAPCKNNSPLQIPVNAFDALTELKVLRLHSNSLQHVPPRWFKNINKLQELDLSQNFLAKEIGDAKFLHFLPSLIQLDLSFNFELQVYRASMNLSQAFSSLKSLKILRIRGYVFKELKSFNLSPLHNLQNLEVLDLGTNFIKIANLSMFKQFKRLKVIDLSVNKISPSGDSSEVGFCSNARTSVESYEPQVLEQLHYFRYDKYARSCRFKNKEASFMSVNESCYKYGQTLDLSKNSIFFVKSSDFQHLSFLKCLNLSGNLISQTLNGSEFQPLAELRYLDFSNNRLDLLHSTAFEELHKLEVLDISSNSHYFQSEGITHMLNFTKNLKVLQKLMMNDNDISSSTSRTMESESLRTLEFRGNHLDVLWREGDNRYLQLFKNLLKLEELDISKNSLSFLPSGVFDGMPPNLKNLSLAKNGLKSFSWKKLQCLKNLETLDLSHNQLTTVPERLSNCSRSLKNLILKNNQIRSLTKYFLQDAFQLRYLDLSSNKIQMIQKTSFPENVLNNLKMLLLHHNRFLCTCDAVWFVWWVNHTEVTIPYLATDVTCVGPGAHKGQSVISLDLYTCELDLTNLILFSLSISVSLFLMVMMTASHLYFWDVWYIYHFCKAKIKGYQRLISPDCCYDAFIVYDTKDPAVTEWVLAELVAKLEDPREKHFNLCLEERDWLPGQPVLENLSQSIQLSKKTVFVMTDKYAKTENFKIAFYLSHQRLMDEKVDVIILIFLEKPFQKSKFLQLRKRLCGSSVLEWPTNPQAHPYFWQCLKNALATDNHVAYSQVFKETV
Procedure, shortened: (§1)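 Stimulation followed a 30 min room-temperature compound exposure (final 0.05 nM-50 μM): TLR7 cells with 7.5 μM gardiquimod, TLR8 with 15.9 μM R848, TLR9 with 5 nM ODN2006. After 22 h at 37 °C, secreted alkaline phosphatase was detected colorimetrically and inhibition calculated against DMSO and known-inhibitor controls.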

human TLR8 = biological target: T2, human TLR8 (Homo sapiens, UniProt Q9NR97); assay: TLR8 inhibition reporter assay (HEK-Blue SEAP); conditions: HEK-Blue cells overexpressing human TLR8, stimulated with R848 15.9 μM, 22 hour incubation
T2 construct: host or cells: HEK-Blue cells
T2 sequence (Q9NR97 27-1041): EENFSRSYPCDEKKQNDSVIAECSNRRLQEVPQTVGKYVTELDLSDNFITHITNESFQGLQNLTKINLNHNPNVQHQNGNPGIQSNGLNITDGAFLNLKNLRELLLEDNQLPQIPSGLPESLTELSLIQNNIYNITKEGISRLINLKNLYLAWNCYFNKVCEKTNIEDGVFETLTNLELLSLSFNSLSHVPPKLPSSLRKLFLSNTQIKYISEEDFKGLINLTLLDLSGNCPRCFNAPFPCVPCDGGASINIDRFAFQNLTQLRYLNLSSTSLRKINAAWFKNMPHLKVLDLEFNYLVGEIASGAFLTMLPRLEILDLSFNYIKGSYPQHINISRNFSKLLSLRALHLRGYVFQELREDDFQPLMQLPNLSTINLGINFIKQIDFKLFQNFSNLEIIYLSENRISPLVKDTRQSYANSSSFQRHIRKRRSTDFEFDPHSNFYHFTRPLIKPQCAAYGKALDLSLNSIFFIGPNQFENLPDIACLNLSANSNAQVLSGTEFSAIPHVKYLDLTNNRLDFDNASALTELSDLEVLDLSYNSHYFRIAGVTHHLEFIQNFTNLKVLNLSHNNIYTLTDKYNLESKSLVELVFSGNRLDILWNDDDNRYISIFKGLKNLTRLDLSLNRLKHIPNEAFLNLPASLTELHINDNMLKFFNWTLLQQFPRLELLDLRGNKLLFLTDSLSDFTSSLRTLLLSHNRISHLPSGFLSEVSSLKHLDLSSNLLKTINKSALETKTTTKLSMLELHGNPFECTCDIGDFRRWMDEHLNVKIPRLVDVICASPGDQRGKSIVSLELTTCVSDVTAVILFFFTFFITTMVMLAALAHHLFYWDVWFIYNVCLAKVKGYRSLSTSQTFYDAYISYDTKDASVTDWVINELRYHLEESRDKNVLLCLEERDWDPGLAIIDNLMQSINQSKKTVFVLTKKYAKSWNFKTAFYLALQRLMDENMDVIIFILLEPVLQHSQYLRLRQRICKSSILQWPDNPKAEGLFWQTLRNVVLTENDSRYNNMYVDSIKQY
Procedure, shortened: as §1

human TLR9 = biological target: T3, human TLR9 (Homo sapiens, UniProt Q9NR96); assay: TLR9 inhibition reporter assay (HEK-Blue SEAP); conditions: HEK-Blue cells overexpressing human TLR9, stimulated with ODN2006 5 nM, 22 hour incubation
T3 construct: host or cells: HEK-Blue cells
T3 sequence (Q9NR96 26-1032): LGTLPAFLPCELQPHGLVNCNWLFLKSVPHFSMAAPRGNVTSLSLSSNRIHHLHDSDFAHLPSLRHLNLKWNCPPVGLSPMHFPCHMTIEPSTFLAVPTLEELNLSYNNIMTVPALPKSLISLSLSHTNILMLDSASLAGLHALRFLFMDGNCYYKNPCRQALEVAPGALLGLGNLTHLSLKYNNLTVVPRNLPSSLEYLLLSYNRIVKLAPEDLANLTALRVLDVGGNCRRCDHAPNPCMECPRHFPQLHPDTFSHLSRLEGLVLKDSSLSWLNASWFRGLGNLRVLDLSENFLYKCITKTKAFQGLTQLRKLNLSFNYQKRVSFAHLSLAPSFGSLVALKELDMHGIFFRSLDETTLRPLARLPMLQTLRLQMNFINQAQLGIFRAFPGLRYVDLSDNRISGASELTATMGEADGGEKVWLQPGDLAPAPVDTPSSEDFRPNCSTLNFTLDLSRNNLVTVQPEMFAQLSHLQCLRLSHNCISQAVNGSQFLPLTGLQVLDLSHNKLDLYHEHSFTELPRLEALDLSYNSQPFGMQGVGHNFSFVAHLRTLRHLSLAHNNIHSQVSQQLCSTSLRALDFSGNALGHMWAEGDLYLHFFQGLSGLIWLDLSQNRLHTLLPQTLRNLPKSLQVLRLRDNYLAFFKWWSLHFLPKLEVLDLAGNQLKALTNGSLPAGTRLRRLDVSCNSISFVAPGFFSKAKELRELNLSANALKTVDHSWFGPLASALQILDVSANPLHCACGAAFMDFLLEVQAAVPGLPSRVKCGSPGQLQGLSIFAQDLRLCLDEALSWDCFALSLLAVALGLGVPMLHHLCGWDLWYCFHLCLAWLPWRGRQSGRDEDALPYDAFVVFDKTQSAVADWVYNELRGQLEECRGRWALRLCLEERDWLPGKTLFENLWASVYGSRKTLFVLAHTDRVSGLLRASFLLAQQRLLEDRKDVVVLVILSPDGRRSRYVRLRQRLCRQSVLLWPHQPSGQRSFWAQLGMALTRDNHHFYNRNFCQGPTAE
Procedure, shortened: as §1

SMILES | IC50 (human TLR7) [nM] | IC50 (human TLR8) [nM] | IC50 (human TLR9) [nM]
Cc1cc(-c2[nH]c3ccc(OC4CCN(C(=O)CN(C)C)CC4)cc3c2C(C)C)ccn1 [Example 196, 2-(dimethylamino)-1-(4-((3-isopropyl-2-(2-methylpyridin-4-yl)-1H-indol-5-yl)oxy)piperidin-1-yl)ethan-1-one] | 9.9 | 11.8 | 1420
CNC(=O)CN1CCC(COc2ccc3[nH]c(-c4cc(C)c5ncnn5c4)c(C(C)C)c3c2)CC1 [Example 113, 2-(4-(((3-isopropyl-2-(8-methyl-[1,2,4]triazolo[1,5-a]pyridin-6-yl)-1H-indol-5-yl)oxy)methyl)piperidin-1-yl)-N-methylacetamide] | 1.4 | 7.6 | 6690
Cc1c(-c2[nH]c3ccc(OCC4CN(C(=O)CN(C)C)C4)cc3c2C(C)C)cn2cnnc2c1C [Example 108, 1-(3-(((2-(7,8-dimethyl-[1,2,4]triazolo[4,3-a]pyridin-6-yl)-3-isopropyl-1H-indol-5-yl)oxy)methyl)azetidin-1-yl)-2-(dimethylamino) ethan-1-one] | 14.6 | 124 | 852
COCCN1CCC(COc2ccc3[nH]c(-c4ccnc(C)c4)c(C(C)C)c3c2)C1 (stereo not drawn) [Example 194, 3-isopropyl-5-((1-(2-methoxyethyl)pyrrolidin-3-yl)methoxy)-2-(2-methylpyridin-4-yl)-1H-indole] | 113 | 13.7 | 1460
Cc1cc(-c2[nH]c3ccc(OCC(=O)NC[C@@H](F)C(C)(C)O)cc3c2C(C)C)ccn1 [Example 152, (R)—N-(2-fluoro-3-hydroxy-3-methylbutyl)-2-((3-isopropyl-2-(2-methylpyridin-4-yl)-1H-indol-5-yl)oxy)acetamide] | 1000 | 774 | > 50000
COc1ccc(-c2[nH]c3ccc(OCC(=O)N4C[C@H]5C[C@@H]4CN5)cc3c2C(C)C)cc1OC [Example 132, 1-((1R,4R)-2,5-diazabicyclo[2.2.1]heptan-2-yl)-2-((2-(3,4-dimethoxyphenyl)-3-isopropyl-1H-indol-5-yl)oxy)ethan-1-one] | 58.6 | 15.8 | 2010
COc1ccc(-c2[nH]c3ccc(OCC(=O)N(C)C4CN5CCC4CC5)cc3c2C(C)C)cc1OC (stereo not drawn) [Example 121, 2-((2-(3,4-dimethoxyphenyl)-3-isopropyl-1H-indol-5-yl)oxy)-N-methyl-N-((1s,4s)-quinuclidin-3-yl)acetamide] | 26.8 | 57.7 | 3550
COc1ccc(-c2[nH]c3ccc(OCC(=O)NC4CC[C@H]5CC[C@@H]4N5C)cc3c2C(C)C)cc1OC (stereo partly drawn) [Example 124, 2-((2-(3,4-dimethoxyphenyl)-3-isopropyl-1H-indol-5-yl)oxy)-N-((5S)-8-methyl-8-azabicyclo[3.2.1]octan-2-yl)acetamide] | 227 | 51.2 | 4030
Cc1c(-c2[nH]c3ccc(OCC4CCN(C)CC4)cc3c2C(C)C)cn2cnnc2c1C [Example 54, 6-(3-isopropyl-5-((1-methylpiperidin-4-yl)methoxy)-1H-indol-2-yl)-7,8-dimethyl-[1,2,4]triazolo[4,3-a]pyridine] | 1.5 | 3.1 | 1250

Now from value to compound:

IC50 (human TLR7) [nM] | IC50 (human TLR8) [nM] | IC50 (human TLR9) [nM] | SMILES
3.8 | 1.3 | 528 | Cc1cc(-c2[nH]c3ccc(OC4CCN(CCCO)CC4)cc3c2C(C)C)cc(C)n1 [Example 72, 3-(4-((2-(2,6-dimethylpyridin-4-yl)-3-isopropyl-1H-indol-5-yl)oxy)piperidin-1-yl)propan-1-ol]
200 | 181 | 28400 | Cc1cc(-c2[nH]c3ccc(OCc4cccnc4)cc3c2C(C)C)ccn1 [Example 169, 3-isopropyl-2-(2-methylpyridin-4-yl)-5-(pyridin-3-ylmethoxy)-1H-indole]
84.2 | 5.8 | 2810 | Cc1cc(-c2[nH]c3ccc(OCC4CCN(C(C)C)CC4)cc3c2C(C)C)ccn1 [Example 191, 3-isopropyl-5-((1-isopropylpiperidin-4-yl)methoxy)-2-(2-methylpyridin-4-yl)-1H-indole]
493 | 439 | 6360 | Cc1c(-c2[nH]c3ccc(OCC4CN(C)C4)cc3c2C(C)C)cn2cnnc2c1C [Example 61, 6-(3-isopropyl-5-((1-methylazetidin-3-yl)methoxy)-1H-indol-2-yl)-7,8-dimethyl-[1,2,4]triazolo[4,3-a]pyridine]
119 | 23.8 | 410 | Cc1cc(-c2[nH]c3ccc(OCC(=O)N4CC5CN(C)CC5C4)cc3c2C(C)C)ccn1 (stereo not drawn) [Example 149, 2-((3-isopropyl-2-(2-methylpyridin-4-yl)-1H-indol-5-yl)oxy)-1-(5-methylhexahydropyrrolo[3,4-c]pyrrol-2(1H)-yl)ethan-1-one]
